Results: patent publication US20250388582A1, “NOVEL BICYCLIC HETEROARYL COMPOUND AND USE THEREOF” (ILDONG PHARMACEUTICAL CO., LTD., priority 2022, published 2025)

Experiments:
human GST-PIKFYVE = molecular target: T1, human GST-PIKFYVE (Homo sapiens, UniProt Q9Y2I7); assay: ADP-Glo kinase assay, enzyme inhibition activity against human PIKFYVE (Carna biosciences); format: biochemical; conditions: inhibitory activity at final compound concentration 10 nM; 1 hour at room temperature
T1 construct: GST; purchased Carna biosciences 11-118
In short: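 Human GST-PIKFYVE (glutathione Sepharose-purified) was reacted with substrate and ATP for 1 h at room temperature in 50 mM MOPS, 1 mM DTT, pH 7.2, with compound at 10 nM final. ADP formed was read by ADP-Glo luminescence; inhibition was calculated against no-enzyme (100%) and no-compound (0%) controls.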

PIKFYVE = molecular target: T2, PIKFYVE (Homo sapiens, UniProt Q9Y2I7); assay: NanoBRET TE Intracellular Kinase Assay, interaction of PIKFYVE and compounds in HEK293 cells; format: cell-based; conditions: IC50 class from BRET; HEK293 cells expressing PIKFYVE-NanoLuc; 2 hours incubation
T2 construct: host or cells: HEK293 (ATCC, CRL-1573)
Experimental: To predict the efficacy of the compounds according to Example on PIKFYVE in humans, the interaction between PIKFYVE and the compounds was tested using the HEK293 cell line derived from human embryonic kidney (ATCC, CRL-1573) via NanoBRETT TE Intracellular Kinase Assay Service of Carna biosciences Inc., (Japan). The evaluation method provided by Carna biosciences Inc., was shown below and the NanoBRET™ TE Intracellular Kinase Assay, K-8 Kit (Promega, CS1810C88) was used.
The HEK-293 cells cultured in Opti-MEM™ I Reduced Serum Medium (Thermo Fisher, 11058-021) were transfected with Transfection Carrier DNA (Promega, E4881), PIKFYVE-NanoLuc Fusion Vector (Promega, CS1810C225), and FuGENE HD Transfection Reagent (Promega, E2311) to produce cells expressing genes combining PIKFYVE and NanoLuc, followed by culturing 100 μl (2×10^5 cells/ml) each in 96-well plates (Corning, 3917).
10× compounds according to Examples or Comparative Examples prepared by concentration in 1× NanoBRET™ tracer reagent and DMSO were reacted in 96-well plates and incubated for 2 hours in a 37° C., 5% CO2 incubator.
After the reaction was completed, 3× Complete NanoBRET™ Nano-Glo Substrate solution was added to each well, and the reaction was allowed to run for 2-3 minutes at room temperature before BRET was measured using a GloMax Discover Multimode Microplate Reader (Promega).

T1 sequence (Q9Y2I7 whole entry): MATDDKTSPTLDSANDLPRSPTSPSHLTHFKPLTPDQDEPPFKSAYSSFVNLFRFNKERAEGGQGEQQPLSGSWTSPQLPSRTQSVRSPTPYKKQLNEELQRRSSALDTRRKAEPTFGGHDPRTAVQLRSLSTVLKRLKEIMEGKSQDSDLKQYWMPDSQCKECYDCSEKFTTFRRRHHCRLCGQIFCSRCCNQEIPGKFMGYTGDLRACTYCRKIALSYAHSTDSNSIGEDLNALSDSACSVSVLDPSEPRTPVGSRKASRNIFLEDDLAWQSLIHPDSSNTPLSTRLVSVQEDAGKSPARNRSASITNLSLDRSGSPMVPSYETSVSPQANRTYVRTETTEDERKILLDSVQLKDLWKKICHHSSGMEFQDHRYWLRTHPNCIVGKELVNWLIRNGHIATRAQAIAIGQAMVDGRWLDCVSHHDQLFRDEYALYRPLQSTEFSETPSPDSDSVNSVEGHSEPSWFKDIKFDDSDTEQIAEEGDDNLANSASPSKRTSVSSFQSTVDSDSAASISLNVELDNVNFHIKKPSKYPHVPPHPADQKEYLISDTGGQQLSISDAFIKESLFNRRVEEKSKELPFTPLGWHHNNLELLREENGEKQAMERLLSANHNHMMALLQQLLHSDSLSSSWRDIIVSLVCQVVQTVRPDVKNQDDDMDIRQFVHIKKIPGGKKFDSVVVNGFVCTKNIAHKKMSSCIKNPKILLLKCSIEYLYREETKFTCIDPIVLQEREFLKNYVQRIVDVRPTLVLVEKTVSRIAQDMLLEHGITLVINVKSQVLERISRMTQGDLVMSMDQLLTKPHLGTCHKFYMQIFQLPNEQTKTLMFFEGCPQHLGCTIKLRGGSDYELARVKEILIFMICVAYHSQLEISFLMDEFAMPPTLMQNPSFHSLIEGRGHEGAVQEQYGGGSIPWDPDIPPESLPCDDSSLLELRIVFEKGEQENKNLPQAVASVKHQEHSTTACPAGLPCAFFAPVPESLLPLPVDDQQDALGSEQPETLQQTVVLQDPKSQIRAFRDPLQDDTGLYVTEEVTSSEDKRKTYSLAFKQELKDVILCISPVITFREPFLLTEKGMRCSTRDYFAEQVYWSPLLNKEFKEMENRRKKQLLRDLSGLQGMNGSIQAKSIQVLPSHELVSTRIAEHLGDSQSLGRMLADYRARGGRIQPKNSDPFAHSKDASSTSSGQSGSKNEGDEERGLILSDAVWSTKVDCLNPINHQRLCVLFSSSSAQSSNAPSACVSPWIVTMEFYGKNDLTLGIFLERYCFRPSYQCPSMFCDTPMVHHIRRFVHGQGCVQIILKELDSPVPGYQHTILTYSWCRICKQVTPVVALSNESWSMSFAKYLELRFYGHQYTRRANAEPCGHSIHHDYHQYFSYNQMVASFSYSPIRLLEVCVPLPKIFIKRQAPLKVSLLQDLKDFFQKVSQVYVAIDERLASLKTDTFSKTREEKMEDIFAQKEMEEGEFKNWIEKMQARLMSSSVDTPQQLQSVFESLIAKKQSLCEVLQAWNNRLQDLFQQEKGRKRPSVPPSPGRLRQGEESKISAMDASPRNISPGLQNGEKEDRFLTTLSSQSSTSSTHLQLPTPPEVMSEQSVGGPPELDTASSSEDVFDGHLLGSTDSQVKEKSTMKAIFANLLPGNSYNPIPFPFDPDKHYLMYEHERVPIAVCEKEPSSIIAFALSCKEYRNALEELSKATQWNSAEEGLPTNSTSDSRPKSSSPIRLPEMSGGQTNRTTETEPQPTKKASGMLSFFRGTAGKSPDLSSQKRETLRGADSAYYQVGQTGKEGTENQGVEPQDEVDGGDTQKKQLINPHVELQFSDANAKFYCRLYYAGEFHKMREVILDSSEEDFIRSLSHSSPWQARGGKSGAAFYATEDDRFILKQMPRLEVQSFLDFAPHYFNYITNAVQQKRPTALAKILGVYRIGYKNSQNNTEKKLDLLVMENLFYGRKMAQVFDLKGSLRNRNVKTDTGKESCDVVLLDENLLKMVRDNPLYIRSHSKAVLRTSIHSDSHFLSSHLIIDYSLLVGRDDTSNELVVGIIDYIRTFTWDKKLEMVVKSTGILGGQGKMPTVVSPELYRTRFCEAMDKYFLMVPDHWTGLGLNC
T2 sequence (Q9Y2I7 whole entry): as above

| Structure (SMILES) | ADP-Glo kinase assay (%, 10 nM) (human GST-PIKFYVE) | IC50 (PIKFYVE) |
| --- | --- | --- |
| Cc1cccc(/C=N/Nc2nc(N3CCOCC3)nc3c2ncn3C2CCN(C(=O)c3ccccc3)CC2)c1 [Example 89, (E)-(4-(6-(2-(3-methylbenzylidene)hydrazinyl)-2-morpholino-9H-purin-9-yl)piperidin-1-yl)(phenyl)methanone] | 76.44% | 10 to 20 nM |
| Cc1cccc(/C=N/Nc2nc(N3CCOCC3)nc3c2ncn3C2CCN(C(=O)N(C)C)CC2)c1 [Example 90, (E)-N,N-dimethyl-4-(6-(2-(3-methylbenzylidene)hydrazinyl)-2-morpholino-9H-purin-9-yl)piperidine-1-carboxamide] | 66.88% | 20 to 30 nM |
| COC(=O)N1CCC(n2cnc3c(N/N=C/c4cccc(C)c4)nc(N4CCOCC4)nc32)CC1 [Example 91, methyl (E)-4-(6-(2-(3-methylbenzylidene)hydrazinyl)-2-morpholino-9H-purin-9-yl)piperidine-1-carboxylate] | 73.33% | 10 to 20 nM |
| Cc1cccc(/C=N/Nc2nc(N3CCOCC3)nc3c2ncn3C2CCN(S(C)(=O)=O)CC2)c1 [Example 92, (E)-4-(6-(2-(3-methylbenzylidene)hydrazinyl)-9-(1-(methylsulfonyl)piperidin-4-yl)-9H-purin-2-yl)morpholino] | 61.82% | 20 to 30 nM |
| Cc1cccc(/C=N/Nc2nc(N3CCOCC3)nc3c2ncn3C2CCN(C(=O)c3ccncc3)CC2)c1 [Example 93, (E)-(4-(6-(2-(3-methylbenzylidene)hydrazinyl)-2-morpholino-9H-purin-9-yl)piperidin-1-yl)(pyridin-4-yl)methanone] | 66.78% | 20 to 30 nM |
| Cc1cccc(/C=N/Nc2nc(N3CCOC[C@@H]3C)nc3c2ncn3-c2cccnc2)c1 [Example 97, (S,E)-3-methyl-4-(6-(2-(3-methylbenzylidene)hydrazinyl)-9-(pyridin-3-yl)-9H-purin-2-yl)morpholine] | 78.47% | 10 to 20 nM |
| Cc1cccc(/C=N/Nc2nc(N3CCOCC3)nc3c2ncn3-c2ccc(C(F)(F)F)cc2)c1 [Example 104, (E)-4-(6-(2-(3-methylbenzylidene)hydrazinyl)-9-(4-(trifluoromethyl)phenyl)-9H-purin-2-yl)morpholine] | 68.18% | 10 to 20 nM |
| Cc1cccc(/C=N/Nc2nc(N3CCOCC3)nc3c2ncn3-c2ccc(O)nc2)c1 [Example 114, (E)-5-(6-(2-(3-methylbenzylidene)hydrazinyl)-2-morpholino-9H-purin-9-yl)pyridin-2-ol] | 80.06% | 20 to 30 nM |
| COc1ccccc1-n1cnc2c(N/N=C/c3cccc(C)c3)nc(N3CCOCC3)nc21 [Example 124, (E)-4-(9-(2-methoxyphenyl)-6-(2-(3-methylbenzylidene)hydrazinyl)-9H-purin-2-yl)morpholine] | 87.81% | ≤ 10 nM |
| Cc1cccc(/C=N/Nc2nc(N3CCOCC3)nc3c2ncn3-c2cccc(OC3CC3)c2)c1 [Example 125, (E)-4-(9-(3-cyclopropoxyphenyl)-6-(2-(3-methylbenzylidene)hydrazinyl)-9H-purin-2-yl)morpholine] | 65.27% | ≤ 10 nM |
| Cc1cccc(/C=N/Nc2nc(N3CCOCC3)nc3c2ncn3-c2cccc(O)c2)c1 [Example 131, (E)-3-(6-(2-(3-methylbenzylidene)hydrazinyl)-2-morpholino-9H-purin-9-yl)phenol] | 91.40% | ≤ 10 nM |
| COc1cccc(-n2cnc3c(-n4ccc(-c5cccc(C)c5)n4)nc(N4CCOCC4)nc32)c1 [Example 137, 4-(9-(3-methoxyphenyl)-6-(3-(m-tolyl)-1H-pyrazol-1-yl)-9H-purin-2-yl)morpholine] | 81.44% | ≤ 10 nM |
| Cc1ccc(-n2cnc3c(N/N=C/c4cccc(C)c4)nc(N4CCOCC4)nc32)nc1 [Example 143, (E)-4-(6-(2-(3-methylbenzylidene)hydrazinyl)-9-(5-methylpyridin-2-yl)-9H-purin-2-yl)morpholine] | 90.79% | ≤ 10 nM |
| Cc1cccc(/C=N/Nc2nc(N3CCOCC3)nc3c2ncn3-c2cncc(C)c2)c1 [Example 145, (E)-4-(6-(2-(3-methylbenzylidene)hydrazinyl)-9-(5-methylpyridin-3-yl)-9H-purin-2-yl)morpholine] | 94.29% | ≤ 10 nM |

The remaining lines, values ahead:

| ADP-Glo kinase assay (%, 10 nM) (human GST-PIKFYVE) | IC50 (PIKFYVE) | Structure (SMILES) |
| --- | --- | --- |
| 87.24% | ≤ 10 nM | Cc1cccc(/C=N/Nc2nc(N3CCOCC3)nc3c2ncn3-c2ccccn2)c1 [Example 99, (E)-4-(6-(2-(3-methylbenzylidene)hydrazinyl)-9-(pyridin-2-yl)-9H-purin-2-yl)morpholine] |
| 83.22% | ≤ 10 nM | Cc1cccc(/C=N/Nc2nc(N3CCOCC3)nc3c2ncn3-c2ccc(Cl)cc2)c1 [Example 100, (E)-4-(9-(4-chlorophenyl)-6-(2-(3-methylbenzylidene)hydrazinyl)-9H-purin-2-yl)morpholine] |
| 91.19% | ≤ 10 nM | Cc1cccc(/C=N/Nc2nc(N3CCOCC3)nc3c2ncn3-c2ccnc(O)c2)c1 [Example 102, (E)-4-(6-(2-(3-methylbenzylidene)hydrazinyl)-2-morpholino-9H-purin-9-yl)pyridin-2-ol] |
| 91.20% | ≤ 10 nM | Cc1cccc(/C=N/Nc2nc(N3CCOCC3)nc3c2ncn3-c2ccncc2)c1 [Example 103, (E)-4-(6-(2-(3-methylbenzylidene)hydrazinyl)-9-(pyridin-4-yl)-9H-purin-2-yl)morpholine] |
| 82.62% | ≤ 10 nM | Cc1cccc(-c2ccn(-c3nc(N4CCOCC4)nc4c3ncn4-c3ccncc3)n2)c1 [Example 107, 4-(9-(pyridin-4-yl)-6-(3-(m-tolyl)-1H-pyrazol-1-yl)-9H-purin-2-yl)morpholine] |
| 80.35% | ≤ 10 nM | COc1ccc(-n2cnc3c(N/N=C/c4cccc(C)c4)nc(N4CCOCC4)nc32)nc1 [Example 108, (E)-4-(9-(5-methoxypyridin-2-yl)-6-(2-(3-methylbenzylidene)hydrazinyl)-9H-purin-2-yl)morpholine] |
| 88.60% | ≤ 10 nM | Cc1cccc(/C=N/Nc2nc(N3CCOCC3)nc3c2ncn3-c2ccc(C)nc2)c1 [Example 110, (E)-4-(6-(2-(3-methylbenzylidene)hydrazinyl)-9-(6-methylpyridin-3-yl)-9H-purin-2-yl)morpholine] |
| 89.10% | ≤ 10 nM | C(=N\Nc1nc(N2CCOCC2)nc2c1ncn2-c1ccncc1)/c1c[nH]c2ccccc12 [Example 112, (E)-4-(6-(2-((1H-indol-3-yl)methylene)hydrazinyl)-9-(pyridin-4-yl)-9H-purin-2-yl)morpholine] |
| 87.10% | ≤ 10 nM | COc1ccc(-n2cnc3c(N/N=C/c4cccc(C)c4)nc(N4CCOCC4)nc32)cn1 [Example 113, (E)-4-(9-(6-methoxypyridin-3-yl)-6-(2-(3-methylbenzylidene)hydrazinyl)-9H-purin-2-yl)morpholine] |
| 92.24% | ≤ 10 nM | Cc1cccc(/C=N/Nc2nc(N3CCOCC3)nc3c2ncn3-c2ccnc(Cl)c2)c1 [Example 115, (E)-4-(9-(2-chloropyridin-4-yl)-6-(2-(3-methylbenzylidene)hydrazinyl)-9H-purin-2-yl)morpholine] |
| 87.75% | ≤ 10 nM | Cc1cccc(/C=N/Nc2nc(N3CCOCC3)nc3c2ncn3-c2ccc(Cl)cn2)c1 [Example 116, (E)-4-(9-(5-chloropyridin-2-yl)-6-(2-(3-methylbenzylidene)hydrazinyl)-9H-purin-2-yl)morpholine] |
| 81.33% | ≤ 10 nM | Cc1cccc(-c2ccn(-c3nc(N4CCOCC4)nc4c3ncn4-c3cccnc3)n2)c1 [Example 118, 4-(9-(pyridin-3-yl)-6-(3-(m-tolyl)-1H-pyrazol-1-yl)-9H-purin-2-yl)morpholine] |
| 80.61% | ≤ 10 nM | Cc1cccc(/C=N/Nc2nc(N3CCOCC3)nc3c2ncn3-c2ccccc2)c1 [Example 119, (E)-4-(6-(2-(3-methylbenzylidene)hydrazinyl)-9-phenyl-9H-purin-2-yl)morpholine] |
| 84.48% | ≤ 10 nM | Cc1cccc(/C=N/Nc2nc(N3CCOCC3)nc3c2ncn3-c2ccc(N(C)C)cc2)c1 [Example 123, (E)-N,N-dimethyl-4-(6-(2-(3-methylbenzylidene)hydrazinyl)-2-morpholino-9H-purin-9-yl)aniline] |
